Data as given in patent US6054435A, “6-O-substituted macrolides having antibacterial activity” (priority 1999, dated 2000).
Values after ≈ are worked out from the molar mass of the structure shown.

Columns and labels:
Assay in all cases: in vitro antibacterial activity (MIC), agar dilution
Format in all cases: cell-based
[1] = system: Escherichia coli DC-2; details: organism code SS; BHI agar, 35-37° C., 20 to 24 hours; unit assumed
Outline: (§1)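 Steps: dilute compound serially into BHI agar (twelve plates); spot inocula diluted 1:100, or 1:10 for slow-growing Streptococcus; incubate; inspect visually. MIC recorded as lowest level with no growth, slight haze or sparse isolated colonies.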

[2] = system: Candida albicans CCH 442; details: organism code TT; BHI agar, 35-37° C., 20 to 24 hours; unit assumed
Outline: as §1

[3] = system: Enterococcus faecium ATCC 8043; details: organism code II; BHI agar, 35-37° C., 20 to 24 hours; unit assumed
Outline: as §1

[4] = system: Micrococcus luteus ATCC 4698; details: organism code PP; BHI agar, 35-37° C., 20 to 24 hours; unit assumed
Outline: (§2)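 Endpoint: lowest concentration with no growth, slight haze or sparsely isolated colonies at the inoculum spot, judged against a compound-free BHI control. Strains were replicator-inoculated at 1:100 (1:10 for Streptococcus and other slow growers).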

[5] = system: Staphylococcus aureus CMX 553; details: organism code FF; BHI agar, 35-37° C., 20 to 24 hours; unit assumed
Outline: as §1

[6] = system: Streptococcus Pneumonia GYR 1171; details: organism code YY; BHI agar, 35-37° C., 20 to 24 hours; unit assumed
Outline: as §1

[7] = system: Streptococcus pyogenes PIU 2548; details: organism code NN; BHI agar, 35-37° C., 20 to 24 hours; unit assumed
Outline: as §1

[8] = system: Escherichia coli JUHL; details: organism code QQ; BHI agar, 35-37° C., 20 to 24 hours; unit assumed
Outline: as §1

[9] = system: Streptococcus Pneumonia ATCC6303; details: organism code XX; BHI agar, 35-37° C., 20 to 24 hours; unit assumed
Outline: as §1

[10] = system: Staphylococcus aureus NCTC10649M; details: organism code EE; BHI agar, 35-37° C., 20 to 24 hours; unit assumed
Outline: as §1

[11] = system: Haemophilis Influenzae DILL AMP R; details: organism code WW; BHI agar, 35-37° C., 20 to 24 hours; unit assumed
Outline: as §1

[12] = system: Staphylococcus epidermidis 3519; details: organism code HH; BHI agar, 35-37° C., 20 to 24 hours; unit assumed
Outline: as §1

[13] = system: Staphylococcus aureus A5177; details: organism code BB; BHI agar, 35-37° C., 20 to 24 hours; unit assumed
Outline: as §1

[14] = system: Streptococcus Pneumonia 5649; details: organism code ZZA; BHI agar, 35-37° C., 20 to 24 hours; unit assumed
Outline: as §1

[15] = system: Streptococcus agalactiae CMX 508; details: organism code KK; BHI agar, 35-37° C., 20 to 24 hours; unit assumed
Outline: as §1

[16] = system: Staphylococcus aureus ATCC 6538P; details: organism code AA; BHI agar, 35-37° C., 20 to 24 hours; unit assumed
Outline: as §1

[17] = system: Staphylococcus aureus A-5278; details: organism code CC; BHI agar, 35-37° C., 20 to 24 hours; unit assumed
Outline: as §1

[18] = system: Nocardia Asteroides ATCC9970; details: organism code VV; BHI agar, 35-37° C., 20 to 24 hours; unit assumed
Outline: as §1

[19] = system: Streptococcus Pneumonia 5979; details: organism code ZZ; BHI agar, 35-37° C., 20 to 24 hours; unit assumed
Outline: as §1

[20] = system: Staphylococcus aureus CMX 642A; details: organism code DD; BHI agar, 35-37° C., 20 to 24 hours; unit assumed
Outline: as §1

[21] = system: Micrococcus luteus ATCC 9341; details: organism code OO; BHI agar, 35-37° C., 20 to 24 hours; unit assumed
Outline: as §2

[22] = system: Escherichia coli SS; details: organism code RR; BHI agar, 35-37° C., 20 to 24 hours; unit assumed
Outline: as §1

[23] = system: Streptococcus bovis A-5169; details: organism code JJ; BHI agar, 35-37° C., 20 to 24 hours; unit assumed
Outline: as §1

[24] = system: Staphylococcus aureus 1775; details: organism code GG; BHI agar, 35-37° C., 20 to 24 hours; unit assumed
Outline: as §1

[25] = system: Streptococcus pyogenes EES61; details: organism code LL; BHI agar, 35-37° C., 20 to 24 hours; unit assumed
Outline: as §1

[26] = system: Streptococcus pyogenes 930; details: organism code MM; BHI agar, 35-37° C., 20 to 24 hours; unit assumed
Outline: as §1

[27] = system: Mycobacterium smegmatis ATCC 114; details: organism code UU; BHI agar, 35-37° C., 20 to 24 hours; unit assumed
Outline: as §1

| Compound | MIC [1] [µg/mL] | MIC [2] [µg/mL] | MIC [3] [µg/mL] | MIC [4] [µg/mL] | MIC [5] [µg/mL] | MIC [6] [µg/mL] | MIC [7] [µg/mL] | MIC [8] [µg/mL] | MIC [9] [µg/mL] | MIC [10] [µg/mL] | MIC [11] [µg/mL] | MIC [12] [µg/mL] | MIC [13] [µg/mL] | MIC [14] [µg/mL] | MIC [15] [µg/mL] | MIC [16] [µg/mL] | MIC [17] [µg/mL] | MIC [18] [µg/mL] | MIC [19] [µg/mL] | MIC [20] [µg/mL] | also measured |
| --- | --- | --- | --- | --- | --- | --- | --- | --- | --- | --- | --- | --- | --- | --- | --- | --- | --- | --- | --- | --- | --- |
| CC[C@H]1OC(=O)[C@H](C)C(=O)[C@H](C)[C@@H](O[C@@H]2O[C@H](C)C[C@H](N(C)C)[C@H]2O)[C@](C)(OC/C=C/c2cnc(-c3cccnc3)s2)C[C@@H](C)C(=O)[C@H](C)[C@H]2NC(=O)O[C@@]21C [Example 55] | 50 (≈ 62.6 µM) | > 100 | 0.05 (≈ 0.0626 µM) | 0.2 (≈ 0.25 µM) | 0.05 (≈ 0.0626 µM) | 0.03 (≈ 0.0375 µM) | 0.2 (≈ 0.25 µM) | 50 (≈ 62.6 µM) | 0.03 (≈ 0.0375 µM) | 0.1 (≈ 0.125 µM) | 4 (≈ 5.01 µM) | 0.1 (≈ 0.125 µM) | 0.05 (≈ 0.0626 µM) | 0.25 (≈ 0.313 µM) | 0.05 (≈ 0.0626 µM) | 0.1 (≈ 0.125 µM) | > 100 | 0.02 (≈ 0.025 µM) | 2 (≈ 2.5 µM) | 0.05 (≈ 0.0626 µM) | MIC [21]: 0.02 µg/mL (≈ 0.025 µM); MIC [22]: 0.39 µg/mL (≈ 0.488 µM); MIC [23]: ≤ 0.005 µg/mL; MIC [24]: > 100 µg/mL; MIC [25]: 0.05 µg/mL (≈ 0.0626 µM); MIC [26]: 25 µg/mL (≈ 31.3 µM); MIC [27]: 0.39 µg/mL (≈ 0.488 µM) |
| CC[C@H]1OC(=O)[C@H](C)C(=O)[C@H](C)[C@@H](O[C@@H]2O[C@H](C)C[C@H](N(C)C)[C@H]2O)[C@](C)(OC/C=C/c2cncc(Br)c2)C[C@@H](C)C(=O)[C@H](C)[C@H]2NC(=O)O[C@@]21C [Example 40] | 50 (≈ 62.9 µM) | > 100 | 0.05 (≈ 0.0629 µM) | 0.2 (≈ 0.252 µM) | 0.2 (≈ 0.252 µM) | 0.015 (≈ 0.0189 µM) | 0.1 (≈ 0.126 µM) | 100 (≈ 126 µM) | 0.015 (≈ 0.0189 µM) | 0.2 (≈ 0.252 µM) | 4 (≈ 5.03 µM) | 0.2 (≈ 0.252 µM) | 0.2 (≈ 0.252 µM) | 0.25 (≈ 0.315 µM) | 0.02 (≈ 0.0252 µM) | 0.1 (≈ 0.126 µM) | > 100 | 0.1 (≈ 0.126 µM) | > 128 | 0.2 (≈ 0.252 µM) | MIC [21]: 0.02 µg/mL (≈ 0.0252 µM); MIC [22]: 0.39 µg/mL (≈ 0.491 µM); MIC [23]: 0.02 µg/mL (≈ 0.0252 µM); MIC [24]: > 100 µg/mL; MIC [25]: 0.02 µg/mL (≈ 0.0252 µM); MIC [26]: 50 µg/mL (≈ 62.9 µM); MIC [27]: 0.39 µg/mL (≈ 0.491 µM) |
| CC[C@H]1OC(=O)[C@H](C)C(=O)[C@H](C)[C@@H](O[C@@H]2O[C@H](C)C[C@H](N(C)C)[C@H]2O)[C@](C)(OC/C=C/c2ccc(-c3cncnc3)s2)C[C@@H](C)C(=O)[C@H](C)[C@H]2NC(=O)O[C@@]21C [Example 70] | 100 (≈ 125 µM) | > 100 | 0.05 (≈ 0.0626 µM) | 0.1 (≈ 0.125 µM) | 0.1 (≈ 0.125 µM) | 0.015 (≈ 0.0188 µM) | 0.1 (≈ 0.125 µM) | 100 (≈ 125 µM) | 0.015 (≈ 0.0188 µM) | 0.2 (≈ 0.25 µM) | 4 (≈ 5.01 µM) | 0.1 (≈ 0.125 µM) | 0.2 (≈ 0.25 µM) | 0.25 (≈ 0.313 µM) | 0.02 (≈ 0.025 µM) | 0.1 (≈ 0.125 µM) | > 100 | 0.02 (≈ 0.025 µM) | 4 (≈ 5.01 µM) | 0.1 (≈ 0.125 µM) | MIC [21]: 0.02 µg/mL (≈ 0.025 µM); MIC [22]: 0.78 µg/mL (≈ 0.976 µM); MIC [23]: 0.01 µg/mL (≈ 0.0125 µM); MIC [24]: > 100 µg/mL; MIC [25]: 0.01 µg/mL (≈ 0.0125 µM); MIC [26]: 12.5 µg/mL (≈ 15.6 µM); MIC [27]: 0.39 µg/mL (≈ 0.488 µM) |
